Source: ChEMBL document CHEMBL1240532, “Spiroindolones, a potent compound class for the treatment of malaria” (Science, 2010)
In brackets after ≈: the same amount, converted by molar mass. Activity calls are given as the source filed them. No cut-off for these calls is given here.

Key:
Plasmodium vivax = assay: Antimalarial activity against Plasmodium vivax isolates after 42 hrs; format: functional, organism-based
Plasmodium falciparum [1] = assay: Antimalarial activity against Plasmodium falciparum 3D7 assessed as parasite growth inhibition at 1.6 nM after24 hrs by [3H]hypoxanthin incorporation assay; format: functional
Plasmodium falciparum [2] = assay: Antimalarial activity against Plasmodium falciparum NF54 after 48 hrs incubation by [3H]hypoxanthin incorporation assay
Plasmodium falciparum [3] = assay: Antimalarial activity against chloroquine and pyrimethamine-resistant Plasmodium falciparum V1/S after 48 hrs incubation by [3H]hypoxanthine incorporation assay
[4] = Cytotoxicity against human THP1 cells after 4 days by XTT assay; format: cell-based; conditions: THP-1 cells
[5] = target: Voltage-gated inwardly rectifying potassium channel KCNH2 (Homo sapiens, UniProt Q12809); assay: Inhibition of human ERG
Adenosine receptor A2a = Adenosine receptor A2a (Homo sapiens, UniProt P29274); assay: Binding affinity to human recombinant adenosine 2a receptor
Adenosine receptor A2a, sequence (P29274 whole entry): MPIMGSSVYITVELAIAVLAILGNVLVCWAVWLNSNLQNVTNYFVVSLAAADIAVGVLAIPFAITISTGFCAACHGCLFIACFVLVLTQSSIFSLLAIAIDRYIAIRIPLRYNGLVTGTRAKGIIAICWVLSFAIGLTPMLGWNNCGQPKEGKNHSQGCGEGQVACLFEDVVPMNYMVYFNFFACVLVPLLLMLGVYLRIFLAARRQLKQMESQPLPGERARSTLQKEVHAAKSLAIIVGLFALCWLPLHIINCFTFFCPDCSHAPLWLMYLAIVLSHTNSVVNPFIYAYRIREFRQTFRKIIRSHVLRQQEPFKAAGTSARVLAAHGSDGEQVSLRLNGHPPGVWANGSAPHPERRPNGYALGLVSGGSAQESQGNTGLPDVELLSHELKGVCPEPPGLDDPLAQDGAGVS

[6] = target: Alpha-2A adrenergic receptor (Homo sapiens, UniProt P08913); assay: Binding affinity to human recombinant alpha-2a receptor
Alpha-2A adrenergic receptor, sequence (P08913 whole entry): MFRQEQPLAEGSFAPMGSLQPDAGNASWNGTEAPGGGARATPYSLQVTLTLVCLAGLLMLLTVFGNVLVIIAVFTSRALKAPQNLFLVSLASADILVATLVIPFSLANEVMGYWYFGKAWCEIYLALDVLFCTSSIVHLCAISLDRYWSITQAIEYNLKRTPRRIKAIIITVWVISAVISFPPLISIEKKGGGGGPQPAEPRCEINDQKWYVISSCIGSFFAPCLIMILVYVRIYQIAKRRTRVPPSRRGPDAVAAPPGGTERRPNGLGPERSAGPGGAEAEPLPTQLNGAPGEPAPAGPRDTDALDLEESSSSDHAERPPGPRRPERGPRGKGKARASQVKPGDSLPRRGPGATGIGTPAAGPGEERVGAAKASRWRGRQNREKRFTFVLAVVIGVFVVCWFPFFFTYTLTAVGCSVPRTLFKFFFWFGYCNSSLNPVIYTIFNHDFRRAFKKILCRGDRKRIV

[7] = target: Alpha-2B adrenergic receptor (Homo sapiens, UniProt P18089); assay: Binding affinity to human recombinant alpha2b receptor
Alpha-2B adrenergic receptor, sequence (P18089 whole entry): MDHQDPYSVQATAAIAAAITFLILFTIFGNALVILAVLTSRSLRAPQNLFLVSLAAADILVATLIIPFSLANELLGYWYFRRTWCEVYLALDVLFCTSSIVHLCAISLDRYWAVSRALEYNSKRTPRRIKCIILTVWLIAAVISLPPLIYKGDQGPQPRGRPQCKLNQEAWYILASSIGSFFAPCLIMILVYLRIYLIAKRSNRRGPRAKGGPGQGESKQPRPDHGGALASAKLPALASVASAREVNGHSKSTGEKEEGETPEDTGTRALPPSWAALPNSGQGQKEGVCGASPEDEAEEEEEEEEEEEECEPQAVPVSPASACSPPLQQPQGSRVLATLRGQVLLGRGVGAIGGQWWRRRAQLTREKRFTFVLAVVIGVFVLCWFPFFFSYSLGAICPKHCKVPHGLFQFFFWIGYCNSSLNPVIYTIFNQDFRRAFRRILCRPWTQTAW

[8] = target: Prostaglandin G/H synthase 2 (Homo sapiens, UniProt P35354); assay: Binding affinity to human recombinant COX2
D(1A) dopamine receptor = D(1A) dopamine receptor (Homo sapiens, UniProt P21728); assay: Binding affinity to human recombinant dopamine D1 receptor
D(1A) dopamine receptor, sequence (P21728 whole entry): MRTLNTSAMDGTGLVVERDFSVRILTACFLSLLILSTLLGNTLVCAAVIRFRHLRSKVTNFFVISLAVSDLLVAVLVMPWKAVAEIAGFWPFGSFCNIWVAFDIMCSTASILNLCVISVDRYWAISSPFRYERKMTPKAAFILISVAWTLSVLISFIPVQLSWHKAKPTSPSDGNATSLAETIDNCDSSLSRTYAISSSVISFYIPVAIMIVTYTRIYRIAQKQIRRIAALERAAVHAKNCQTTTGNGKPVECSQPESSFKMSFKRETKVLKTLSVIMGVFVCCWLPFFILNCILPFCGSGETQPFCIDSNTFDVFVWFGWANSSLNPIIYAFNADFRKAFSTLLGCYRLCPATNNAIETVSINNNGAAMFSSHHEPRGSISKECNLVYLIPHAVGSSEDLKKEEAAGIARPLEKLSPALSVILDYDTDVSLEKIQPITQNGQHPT

D(3) dopamine receptor = D(3) dopamine receptor (Homo sapiens, UniProt P35462); assay: Binding affinity to human recombinant dopamine D3 receptor
D(3) dopamine receptor, sequence (P35462 whole entry): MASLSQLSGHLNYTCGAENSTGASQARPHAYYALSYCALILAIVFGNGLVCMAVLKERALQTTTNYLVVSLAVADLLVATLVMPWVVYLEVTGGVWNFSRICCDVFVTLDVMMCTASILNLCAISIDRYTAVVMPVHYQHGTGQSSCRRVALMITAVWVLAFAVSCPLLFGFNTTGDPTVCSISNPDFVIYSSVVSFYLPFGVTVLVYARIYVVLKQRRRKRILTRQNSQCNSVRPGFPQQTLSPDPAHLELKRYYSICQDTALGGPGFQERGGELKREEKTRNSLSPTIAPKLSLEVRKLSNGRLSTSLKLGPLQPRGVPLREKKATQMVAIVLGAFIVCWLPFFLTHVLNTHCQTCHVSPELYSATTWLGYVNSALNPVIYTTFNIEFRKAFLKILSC

[9] = target: Sodium-dependent dopamine transporter (Homo sapiens, UniProt Q01959); assay: Binding affinity to human recombinant dopamine transporter
Sodium-dependent dopamine transporter, sequence (Q01959 whole entry): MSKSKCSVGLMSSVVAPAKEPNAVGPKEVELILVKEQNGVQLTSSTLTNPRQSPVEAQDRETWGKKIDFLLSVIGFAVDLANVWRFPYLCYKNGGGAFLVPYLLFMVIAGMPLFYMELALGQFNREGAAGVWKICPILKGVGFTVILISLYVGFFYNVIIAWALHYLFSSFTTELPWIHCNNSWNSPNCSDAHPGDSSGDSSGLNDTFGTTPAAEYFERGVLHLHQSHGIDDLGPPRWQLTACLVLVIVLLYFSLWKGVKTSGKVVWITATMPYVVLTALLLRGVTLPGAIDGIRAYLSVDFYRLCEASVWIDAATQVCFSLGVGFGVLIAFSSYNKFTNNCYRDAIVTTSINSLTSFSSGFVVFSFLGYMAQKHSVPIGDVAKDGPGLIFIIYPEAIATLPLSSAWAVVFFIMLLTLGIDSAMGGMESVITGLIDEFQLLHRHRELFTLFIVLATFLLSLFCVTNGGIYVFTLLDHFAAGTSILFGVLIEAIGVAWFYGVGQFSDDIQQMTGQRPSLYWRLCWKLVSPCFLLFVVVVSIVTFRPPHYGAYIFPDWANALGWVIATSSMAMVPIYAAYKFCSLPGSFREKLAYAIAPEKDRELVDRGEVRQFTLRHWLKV

Endothelin-1 receptor = Endothelin-1 receptor (Homo sapiens, UniProt P25101); assay: Binding affinity to human recombinant endothelin A receptor
Estrogen receptor = Estrogen receptor (Homo sapiens, UniProt P03372); assay: Binding affinity to human recombinant ERalpha
[10] = target: GABA-A receptor; agonist GABA site; assay: Binding affinity to human recombinant GABAA receptor; format: protein-complex assay
[11] = target: Gastric inhibitory polypeptide receptor (Rattus norvegicus, UniProt P43219); assay: Binding affinity to rat Gip receptor
Glucocorticoid receptor = Glucocorticoid receptor (Homo sapiens, UniProt P04150); assay: Binding affinity to human recombinant glucocorticoid receptor
[12] = target: Growth hormone secretagogue receptor type 1 (Homo sapiens, UniProt Q92847); assay: Binding affinity to human recombinant Ghrelin receptor
Histamine H1 receptor = Histamine H1 receptor (Homo sapiens, UniProt P35367); assay: Binding affinity to human recombinant histamine H1 receptor
Histamine H1 receptor, sequence (P35367 whole entry): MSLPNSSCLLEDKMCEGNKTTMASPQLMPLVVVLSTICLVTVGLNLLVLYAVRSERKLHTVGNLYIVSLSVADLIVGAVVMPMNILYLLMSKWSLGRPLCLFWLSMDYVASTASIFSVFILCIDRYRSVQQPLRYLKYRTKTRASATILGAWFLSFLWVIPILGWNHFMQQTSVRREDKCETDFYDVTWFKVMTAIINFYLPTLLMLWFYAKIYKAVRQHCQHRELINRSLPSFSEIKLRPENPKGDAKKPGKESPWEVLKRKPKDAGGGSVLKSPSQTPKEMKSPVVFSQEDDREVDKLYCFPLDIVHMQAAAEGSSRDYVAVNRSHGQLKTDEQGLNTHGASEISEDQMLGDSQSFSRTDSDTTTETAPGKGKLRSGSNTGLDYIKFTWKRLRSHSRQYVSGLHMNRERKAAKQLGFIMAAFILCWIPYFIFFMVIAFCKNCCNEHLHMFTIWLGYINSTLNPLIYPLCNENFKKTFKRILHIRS

Histamine H2 receptor = Histamine H2 receptor (Homo sapiens, UniProt P25021); assay: Binding affinity to human recombinant histamine H2 receptor
Histamine H2 receptor, sequence (P25021 whole entry): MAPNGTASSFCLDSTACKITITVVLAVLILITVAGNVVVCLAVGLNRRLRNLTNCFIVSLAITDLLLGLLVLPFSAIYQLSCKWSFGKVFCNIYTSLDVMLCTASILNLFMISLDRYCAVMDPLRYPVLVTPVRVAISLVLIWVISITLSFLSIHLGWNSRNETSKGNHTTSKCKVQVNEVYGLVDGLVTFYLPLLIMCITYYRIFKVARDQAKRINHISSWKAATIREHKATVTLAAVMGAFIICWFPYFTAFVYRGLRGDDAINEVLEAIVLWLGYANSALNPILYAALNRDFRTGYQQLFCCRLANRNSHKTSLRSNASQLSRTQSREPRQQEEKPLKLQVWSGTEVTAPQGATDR

Melanocortin receptor 4 = Melanocortin receptor 4 (Homo sapiens, UniProt P32245); assay: Binding affinity to human recombinant melanocortin MC4 receptor
[13] = target: Neuropeptide Y receptor type 2 (Homo sapiens, UniProt P49146); assay: Binding affinity to human recombinant neuropeptide Y2 receptor
[14] = target: Sodium-dependent noradrenaline transporter (Homo sapiens, UniProt P23975); assay: Binding affinity to human recombinant norepinephrine transporter
[15] = target: Delta-type opioid receptor (Homo sapiens, UniProt P41143); assay: Binding affinity to human recombinant opiate delta receptor
Phosphodiesterase 3 = Phosphodiesterase 3 (Homo sapiens, UniProt Q14432+Q13370); assay: Binding affinity to human recombinant PDE3; format: protein assay
[16] = target: 5-hydroxytryptamine receptor 2A (Homo sapiens, UniProt P28223); assay: Binding affinity to human recombinant serotonin 5-HT2A receptor
5-hydroxytryptamine receptor 2A, sequence (P28223 whole entry): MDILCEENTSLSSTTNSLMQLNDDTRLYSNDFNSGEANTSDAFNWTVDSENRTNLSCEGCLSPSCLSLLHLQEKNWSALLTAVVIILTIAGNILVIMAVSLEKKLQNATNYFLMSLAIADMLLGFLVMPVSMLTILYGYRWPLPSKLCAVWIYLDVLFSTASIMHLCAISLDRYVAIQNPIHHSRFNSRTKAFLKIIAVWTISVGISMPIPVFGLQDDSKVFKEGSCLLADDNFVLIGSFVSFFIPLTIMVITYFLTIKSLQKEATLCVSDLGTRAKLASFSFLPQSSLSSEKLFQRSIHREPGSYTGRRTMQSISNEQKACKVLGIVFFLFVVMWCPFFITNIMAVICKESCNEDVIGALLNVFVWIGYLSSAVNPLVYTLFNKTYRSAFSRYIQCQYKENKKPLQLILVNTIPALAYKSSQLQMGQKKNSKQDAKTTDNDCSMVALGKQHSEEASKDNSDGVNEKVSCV

[17] = target: 5-hydroxytryptamine receptor 2B (Homo sapiens, UniProt P41595); assay: Binding affinity to human recombinant serotonin 5-HT2B receptor
5-hydroxytryptamine receptor 2B, sequence (P41595 whole entry): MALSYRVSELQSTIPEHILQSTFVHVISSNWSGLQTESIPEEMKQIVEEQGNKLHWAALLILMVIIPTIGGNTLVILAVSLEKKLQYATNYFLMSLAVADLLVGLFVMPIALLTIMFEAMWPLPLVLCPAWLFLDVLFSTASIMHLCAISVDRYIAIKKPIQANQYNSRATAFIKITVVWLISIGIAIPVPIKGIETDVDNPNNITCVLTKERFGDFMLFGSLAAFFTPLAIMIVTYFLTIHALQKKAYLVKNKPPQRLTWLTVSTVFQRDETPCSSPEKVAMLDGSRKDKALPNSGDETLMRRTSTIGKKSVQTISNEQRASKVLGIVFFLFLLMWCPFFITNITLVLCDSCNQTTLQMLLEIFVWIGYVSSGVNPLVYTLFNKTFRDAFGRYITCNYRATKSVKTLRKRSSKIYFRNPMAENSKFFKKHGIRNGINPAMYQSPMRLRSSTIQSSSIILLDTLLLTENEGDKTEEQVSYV

[18] = target: 5-hydroxytryptamine receptor 3A (Homo sapiens, UniProt P46098); assay: Binding affinity to human recombinant serotonin 5HT3 receptor
Vasopressin V2 receptor = Vasopressin V2 receptor (Homo sapiens, UniProt P30518); assay: Binding affinity to human recombinant vasopressin V2 receptor
Vasopressin V2 receptor, sequence (P30518 whole entry): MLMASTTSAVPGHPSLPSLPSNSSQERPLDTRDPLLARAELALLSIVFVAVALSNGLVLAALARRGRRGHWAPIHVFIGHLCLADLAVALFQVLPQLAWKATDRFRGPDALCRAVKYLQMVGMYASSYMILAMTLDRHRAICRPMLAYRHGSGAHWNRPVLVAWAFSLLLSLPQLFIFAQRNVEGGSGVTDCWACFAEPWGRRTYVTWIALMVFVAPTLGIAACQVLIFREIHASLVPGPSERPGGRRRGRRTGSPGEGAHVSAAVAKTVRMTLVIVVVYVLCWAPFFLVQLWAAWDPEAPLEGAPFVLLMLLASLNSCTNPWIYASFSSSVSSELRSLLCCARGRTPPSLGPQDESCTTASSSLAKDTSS

[19] = AUC (0 to infinity) in CD1 mouse at 5.4 mg/kg, iv; format: ADME, organism-based; set-up: time infinity, dose 5.4 mg/kg, route intravenous; conditions: plasma
[20] = Cmax in CD1 mouse at 24.6 mg/kg, po; format: ADME, organism-based; set-up: dose 24.6 mg/kg, route oral; conditions: in vivo
[21] = Oral bioavailability in CD1 mouse at 24.6 mg/kg; format: ADME, organism-based; conditions: in vivo
[22] = Volume of distribution at steady state in Wistar rat at 5 mg/kg, iv; format: ADME, organism-based; set-up: dose 5 mg/kg, route intravenous; conditions: in vivo, read-out: Vdss
[23] = Cmax in Wistar rat at 23.7 mg/kg, po; format: ADME, organism-based; set-up: dose 23.7 mg/kg, route oral; conditions: in vivo
Plasmodium berghei [24] = assay: Antimalarial activity against Plasmodium berghei GFP ANKA infected in NMRI mice (Mus musculus) assessed as survival at 100 mg/kg, perorally administered as single dose 24 hrs post infection for 1 day measured 72 hrs post infection; format: functional; conditions: route oral
Plasmodium berghei [25] = assay: Antimalarial activity against Plasmodium berghei GFP ANKA infected in NMRI mice (Mus musculus) assessed as cure rate at 100 mg/kg, perorally administered as single dose 24 hrs post infection for 1 day measured 30 days post infection; format: functional; conditions: route oral
Plasmodium berghei [26] = assay: Antimalarial activity against Plasmodium berghei GFP ANKA infected in NMRI mice (Mus musculus) assessed as survival at 30 mg/kg, perorally administered through 0.5% MCM/0.1%solutol HS15 formulation 24 hrs post infection for 3 days measured 96 hrs post infection; format: functional; conditions: route oral
Plasmodium berghei [27] = assay: Antimalarial activity against Plasmodium berghei GFP ANKA infected in NMRI mice (Mus musculus) assessed as survival at 50 mg/kg, perorally administered through 0.5% MCM/0.1%solutol HS15 formulation 24 hrs post infection for 3 days measured 96 hrs post infection; format: functional; conditions: route oral
Plasmodium berghei [28] = assay: Antimalarial activity against Plasmodium berghei GFP ANKA infected in NMRI mice (Mus musculus) assessed as cure rate at 50 mg/kg, perorally administered through 0.5% MCM/0.1%solutol HS15 formulation 24 hrs post infection for 3 days measured on day 30 post infection; format: functional; conditions: route oral
[29] = Solubility in pH 6.8 nuffer; format: physicochemical; conditions: buffer
[30] = Partition coefficient, log P of the compound at pH 7.4; format: physicochemical; conditions: octanol/water
[31] = Mutagenic activity in Salmonella Typhimurium by Ames test; format: toxicity; conditions: salmonella enterica subsp. enterica serovar typhimurium
Mus musculus = assay: Toxicity in Plasmodium berghei GFP ANKA infected NMRI mice (Mus musculus) assessed as reduction in parasitemia dosed in ETPGS formulation 1 day postinfection measured 72 hrs post infection; format: organism-based; conditions: in vivo
in vivo = conditions: Wistar, rat, po, 23.7 mg/kg
Description: Elimination half life in Wistar rat at 23.7 mg/kg, po

Plasmodium falciparum [32] = assay: microbe, parasite or virus in culture; conditions: Dd2, 72 h
Plasmodium falciparum [33] = assay: microbe, parasite or virus in culture; conditions: Dd2, 72 h; remark: listed apart in the source
Plasmodium falciparum [34] = assay: microbe, parasite or virus in culture; conditions: Dd2, 72 h; remark: listed apart in the source
Description: Antimalarial activity against Plasmodium falciparum Dd2 containing attB site inserted in parasite genome and using EF1-alpha promoter driven expressing ATP4 D1247Y mutant after 72 hrs by SYBR green based fluorescence assay

Plasmodium falciparum [35] = assay: microbe, parasite or virus in culture; conditions: Dd2, 72 h; remark: listed apart in the source
Description: Antimalarial activity against Plasmodium falciparum Dd2 containing attB site inserted in parasite genome and using CAM promoter driven expressing ATP4 I398F/P990R mutant after 72 hrs by SYBR green based fluorescence assay

Structure (SMILES): C[C@H]1Cc2c([nH]c3cc(Cl)c(F)cc23)[C@@]2(N1)C(=O)Nc1ccc(Cl)cc12 [CIPARGAMIN]
- inhibition (Plasmodium vivax): Active
- inhibition at 0.0016 µM (Plasmodium falciparum [1]): > 90%
- IC50 (Plasmodium falciparum [2]): 0.0005 µM
- IC50 (Plasmodium falciparum [3]): 0.0014 µM
- CC50 at 96 h [4]: 14 µM
- IC50 [5]: 30.4 µM
- IC50 (Adenosine receptor A2a): > 30 µM
- IC50 [6]: > 10 µM
- IC50 [7]: > 10 µM
- IC50 [8]: > 30 µM
- IC50 (D(1A) dopamine receptor): > 10 µM
- IC50 (D(3) dopamine receptor): > 10 µM
- IC50 [9]: > 10 µM
- IC50 (Endothelin-1 receptor): > 30 µM
- IC50 (Estrogen receptor): > 30 µM
- IC50 [10]: > 10 µM
- IC50 [11]: > 30 µM
- IC50 (Glucocorticoid receptor): > 30 µM
- IC50 [12]: > 30 µM
- IC50 (Histamine H1 receptor): > 10 µM
- IC50 (Histamine H2 receptor): > 10 µM
- IC50 (Melanocortin receptor 4): > 30 µM
- IC50 [13]: > 10 µM
- IC50 [14]: > 10 µM
- IC50 [15]: > 10 µM
- IC50 (Phosphodiesterase 3): > 10 µM
- IC50 [16]: > 10 µM
- IC50 [17]: > 10 µM
- IC50 [18]: > 10 µM
- IC50 (Vasopressin V2 receptor): > 30 µM
- AUC(0-inf) [19]: 23.9 µM·h
- Cmax [20]: 9.17 µM
- bioavailability [21]: 100%
- Vd [22]: 3.04 L/kg
- Cmax [23]: 11.7 µM
- Survival (Plasmodium berghei [24]): >30 days
- Activity (Plasmodium berghei [25]): 100%
- Survival (Plasmodium berghei [26]): 29.1 days
- Survival (Plasmodium berghei [27]): 30 days
- Activity (Plasmodium berghei [28]): 100%
- solubility [29]: 39 µg/mL (≈ 99.9 µM)
- logD [30]: 4.7
- Activity [31]: Non-toxic
- Activity (Mus musculus): Non-toxic
- half-life (in vivo): 27.7 h
- IC50 (Plasmodium falciparum [32]): 0.0028 µM
- IC50 (Plasmodium falciparum [33]): 0.0041 µM
- IC50 (Plasmodium falciparum [34]): 0.00157 µM
- IC50 (Plasmodium falciparum [35]): 0.00425 µM
